{
  "source": "PubChem BioAssay (NCI)",
  "note": "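Cultured in 96-well plates, cells were exposed to test compound for 48 hours across five concentrations. Abbreviation: GI50, concentration required for 50% inhibition of growth. TGI: concentration producing complete growth inhibition.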",
  "data": [
    {"system": "M14 melanoma", "assay": "growth of human tumour cells (NCI), 48 h", "units": {"GI50": "µM", "TGI": "µM"}, "values": [
      {"smiles": "COc1cc(/C=C/[N+](=O)[O-])cc(Br)c1OC", "GI50": 1.78, "TGI": 3.74},
      {"smiles": "CN(CC(N)=O)C(=O)N(CCCl)N=O", "TGI": "> 100"},
      {"smiles": "CC(C)=CCC/C(C)=C/CC/C(C)=C/CC/C=C(\\C)CC/C=C(\\C)CCC(=O)Nc1ccn(C2OC(CO)C(O)C2(F)F)c(=O)n1", "note": "(configuration not stated)", "GI50": 0.0519, "TGI": 1.2},
      {"smiles": "COc1ccc(-c2cc(=O)c3c(OC)c(OC)c(OC)c(OC)c3o2)cc1", "TGI": "> 100"},
      {"smiles": "CC(C)(C)CN1CCn2c(nc3c(N)nccc32)S1", "GI50": 5.68, "TGI": 24.9},
      {"smiles": "COc1ccc2c(c1)OC1=C(C(=O)OC1)C2c1cc(OC)c2c(c1)OCO2", "note": "(configuration not stated)", "GI50": 0.0223, "TGI": 0.0552},
      {"smiles": "CC1(C)CCC[C@]2(C)[C@@H](C=O)C(C=O)=CC[C@@H]12", "TGI": 33.7},
      {"smiles": "O=c1[nH]cnc2c(C3NC(CO)C(O)C3O)c[nH]c12", "note": "(configuration not stated)", "GI50": "> 100", "TGI": "> 100"},
      {"smiles": "CCn1c2ccccc2c2cc(/C=C(/C#N)C(N)=O)ccc21", "GI50": 13.4, "TGI": "> 83.6"},
      {"smiles": "CCN1C(=O)N(CC)C2C1NN=c1s/c(=C3\\C(=O)N(CCc4ccccc4)c4ccccc43)c(=O)n12", "note": "(configuration not stated)", "GI50": 0.478, "TGI": 12.5},
      {"smiles": "CN(C)c1ccc(N=Nc2ccncc2)cc1", "TGI": "> 100"},
      {"smiles": "CC1(C)N=C(N)N=C(N)N1c1ccc(CCCCc2ccc(S(=O)(=O)F)cc2)c(Cl)c1", "GI50": 0.334, "TGI": 17.9},
      {"smiles": "N#CN1CC[C@H](C(=O)Nc2ncc(-c3ccncc3)s2)C1", "GI50": 0.0379, "TGI": 2.1},
      {"smiles": "Cn1cc(-c2nonc2-c2cn(C)c3ccccc23)c2ccccc21", "GI50": 0.469, "TGI": "> 100"},
      {"smiles": "COC(=O)c1nc(-c2ccccc2)oc1S(=O)(=O)n1nc(C)cc1N", "GI50": 5.66, "TGI": 20},
      {"smiles": "CCCCCn1sc(=O)n(Cc2ccc(CNC(=O)OCc3ccc4cccc(O)c4n3)cc2)c1=O", "GI50": 1.33, "TGI": 3.12},
      {"smiles": "Cn1cncc1CC1COC(=O)C1C(O)c1ccccc1", "note": "(configuration not stated)", "TGI": "> 100"},
      {"smiles": "CCCCn1c(=O)c2c(nc3n2CCCN3CCc2ccc(OCC(=O)NCCN(CC)CC)cc2)n(CCCC)c1=O", "GI50": 0.961, "TGI": 1.93}
    ]},
    {"system": "MDA-MB-435", "assay": "growth of human tumour cells (NCI), 48 h", "units": {"GI50": "µM", "TGI": "µM"}, "values": [
      {"smiles": "COc1cc(/C=C/[N+](=O)[O-])cc(Br)c1OC", "GI50": 2.33, "TGI": 6.15},
      {"smiles": "CN(CC(N)=O)C(=O)N(CCCl)N=O", "TGI": "> 100"},
      {"smiles": "CC(C)=CCC/C(C)=C/CC/C(C)=C/CC/C=C(\\C)CC/C=C(\\C)CCC(=O)Nc1ccn(C2OC(CO)C(O)C2(F)F)c(=O)n1", "note": "(configuration not stated)", "GI50": 0.144, "TGI": 7.58},
      {"smiles": "COc1ccc(-c2cc(=O)c3c(OC)c(OC)c(OC)c(OC)c3o2)cc1", "TGI": "> 100"},
      {"smiles": "CC(C)(C)CN1CCn2c(nc3c(N)nccc32)S1", "GI50": 6.67, "TGI": 86.1},
      {"smiles": "COc1ccc2c(c1)OC1=C(C(=O)OC1)C2c1cc(OC)c2c(c1)OCO2", "note": "(configuration not stated)", "GI50": "< 0.0122", "TGI": 0.0371},
      {"smiles": "CC1(C)CCC[C@]2(C)[C@@H](C=O)C(C=O)=CC[C@@H]12", "TGI": "> 100"},
      {"smiles": "O=c1[nH]cnc2c(C3NC(CO)C(O)C3O)c[nH]c12", "note": "(configuration not stated)", "GI50": "> 100", "TGI": "> 100"},
      {"smiles": "CCn1c2ccccc2c2cc(/C=C(/C#N)C(N)=O)ccc21", "GI50": 2.53, "TGI": 18.4},
      {"smiles": "CCN1C(=O)N(CC)C2C1NN=c1s/c(=C3\\C(=O)N(CCc4ccccc4)c4ccccc43)c(=O)n12", "note": "(configuration not stated)", "GI50": 0.245, "TGI": 0.684},
      {"smiles": "CN(C)c1ccc(N=Nc2ccncc2)cc1", "TGI": "> 100"},
      {"smiles": "CC1(C)N=C(N)N=C(N)N1c1ccc(CCCCc2ccc(S(=O)(=O)F)cc2)c(Cl)c1", "GI50": 0.0666, "TGI": 16.6},
      {"smiles": "N#CN1CC[C@H](C(=O)Nc2ncc(-c3ccncc3)s2)C1", "GI50": "< 0.0148", "TGI": 5.52},
      {"smiles": "Cn1cc(-c2nonc2-c2cn(C)c3ccccc23)c2ccccc21", "GI50": 0.228, "TGI": 0.635},
      {"smiles": "COC(=O)c1nc(-c2ccccc2)oc1S(=O)(=O)n1nc(C)cc1N", "GI50": 11.4, "TGI": 25.3},
      {"smiles": "CCCCCn1sc(=O)n(Cc2ccc(CNC(=O)OCc3ccc4cccc(O)c4n3)cc2)c1=O", "GI50": 1.17, "TGI": 2.5},
      {"smiles": "Cn1cncc1CC1COC(=O)C1C(O)c1ccccc1", "note": "(configuration not stated)", "TGI": "> 100"},
      {"smiles": "CCCCn1c(=O)c2c(nc3n2CCCN3CCc2ccc(OCC(=O)NCCN(CC)CC)cc2)n(CCCC)c1=O", "GI50": 5.08, "TGI": 11.1}
    ]},
    {"system": "NCI-H23 lung", "assay": "growth of human tumour cells (NCI), 48 h", "units": {"GI50": "µM", "TGI": "µM"}, "values": [
      {"smiles": "COc1cc(/C=C/[N+](=O)[O-])cc(Br)c1OC", "GI50": 2.06, "TGI": 5.28},
      {"smiles": "CN(CC(N)=O)C(=O)N(CCCl)N=O", "TGI": "> 100"},
      {"smiles": "CC(C)=CCC/C(C)=C/CC/C(C)=C/CC/C=C(\\C)CC/C=C(\\C)CCC(=O)Nc1ccn(C2OC(CO)C(O)C2(F)F)c(=O)n1", "note": "(configuration not stated)", "GI50": 0.0324, "TGI": 12.4},
      {"smiles": "COc1ccc(-c2cc(=O)c3c(OC)c(OC)c(OC)c(OC)c3o2)cc1", "TGI": "> 100"},
      {"smiles": "CC(C)(C)CN1CCn2c(nc3c(N)nccc32)S1", "GI50": 5.17, "TGI": 34},
      {"smiles": "COc1ccc2c(c1)OC1=C(C(=O)OC1)C2c1cc(OC)c2c(c1)OCO2", "note": "(configuration not stated)", "GI50": 0.0441, "TGI": "> 100"},
      {"smiles": "CC1(C)CCC[C@]2(C)[C@@H](C=O)C(C=O)=CC[C@@H]12", "TGI": 69.5},
      {"smiles": "O=c1[nH]cnc2c(C3NC(CO)C(O)C3O)c[nH]c12", "note": "(configuration not stated)", "GI50": "> 100", "TGI": "> 100"},
      {"smiles": "CCn1c2ccccc2c2cc(/C=C(/C#N)C(N)=O)ccc21", "GI50": 16.3, "TGI": "> 100"}
    ]}
  ]
}
